Assay results published in US20240301319A1, “PERFUMING COMPOSITIONS” (FIRMNICH SA, priority 2017, published 2024).
Where “and” joins values, the source holds several entries; their conditions need not be identical. Equal entries are not always repeated.

Columns and labels:
[1] = Volatility of perfuming compounds (Tables 4 to 10), with top/middle/bottom note type; type: physicochemical
Summary of the method: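 Volatility is expressed in μg/l in air. Top notes are 70,000 to 100 μg/l, middle notes 99 to 50 μg/l, and bottom notes 49 to 0.1 μg/l. Compounds are grouped by olfactive family: watery, green, fruity, citrus, sweet, gourmand and woody.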

[2] = Log P (n-octanol/water) of perfuming compounds (Tables 4 to 10)
[3] = Odor threshold and odor value of perfuming compounds (Tables 4 to 10)
[4] = Table 6, perfuming compounds having a fruity note
[5] = Table 6, perfuming compounds having a fruity note, note type by volatility
[6] = note type (Top/Middle/Bottom) by volatility, perfuming compounds having a green note
[7] = perfuming compounds having a green note
[8] = Table 7, citrus note, top, middle or bottom note
[9] = Table 7, citrus note, equals volatility divided by odor threshold
[10] = Table 8, perfuming compounds having a sweet note
[11] = Table 4, watery note, top, middle or bottom note
[12] = Table 4, watery note, equals volatility divided by odor threshold

| Compound | Volatility [1, 4] | Type [1, 5] | Volatility (μg/l air) ([1]; Table 7, citrus note) | Type [1, 8] | Odor Threshold (μg/l air) ([3]; Table 7, citrus note) | Odor Value [3, 9] | other results |
| --- | --- | --- | --- | --- | --- | --- | --- |
| CC(OC=O)C1CCCC(C)(C)C1 (stereo not shown) | 1129.46 μg/l air | TOP (perfuming compounds having a volatility ranging from 70,000 to 100 μg/l in air are referred to as “top notes”) |  |  |  |  | Log P (n-octanol/water) [2, 4]: 4.01 |
| C=CC(CCCCC)OC(C)=O (racemic) [(+−)-1-PENTYL-2-PROPENYL ACETATE] | 1506.95 μg/l air | TOP (perfuming compounds having a volatility ranging from 70,000 to 100 μg/l in air are referred to as “top notes”) |  |  |  |  | Log P (n-octanol/water) [2, 4]: 3.79 |
| CC(O)c1ccccc1 (stereo not shown) [1-PHENYL-1-ETHANOL] | 470.00 μg/l air | TOP (perfuming compounds having a volatility ranging from 70,000 to 100 μg/l in air are referred to as “top notes”) |  |  |  |  | Log P (n-octanol/water) [2, 4]: 1.42 |
| Cc1ccc2c(c1)OCC(=O)CO2 [7-methyl-2H-1,5-benzodioxepin-3(4H)-one] |  |  |  |  |  |  | Log P (n-octanol/water) ([2]; n-octanol/water, perfuming compounds having a green note): 3.40 and 3.53 |
| O=Cc1ccc2c(c1)OCO2 [benzo[d][1,3]dioxole-5-carbaldehyde] |  |  |  |  |  |  | Volatility ([1]; Table 9, gourmand note): 61.82 μg/l air; Type ([1]; Table 9, perfuming compounds having a gourmand note, note type by volatility): Middle; Odor Threshold ([3]; Table 9, gourmand note): 1.01E−04 μg/l air |
| CCCCC/C=C\C=C\C(=O)OCC [ethyl (2E,4Z)-2,4-decadienoate] | 36.76 μg/l air | Bottom |  |  |  |  | Type [1, 6]: Bottom; Volatility (μg/l air) [1, 7]: 36.76 μg/l air; Odor Threshold [3, 4]: 3.07E−04 μg/l air; Odor Value [3, 4]: 1.20E+05; Odor Threshold (μg/l air) [3, 7]: 3.07E−04 μg/l air |
| CCCCCCCC(=O)OCC [ethyl octanoate] |  |  |  |  |  |  | Type [1, 6]: Top; Volatility (μg/l air) [1, 7]: 800.05 μg/l air; Odor Threshold (μg/l air) [3, 7]: 5.30E−03 μg/l air |
| CCCCCCCOC(C)=O [heptyl acetate] | 2814.34 μg/l air | TOP (perfuming compounds having a volatility ranging from 70,000 to 100 μg/l in air are referred to as “top notes”) | 2814.34 μg/l air | Top | 1.32E−01 μg/l air | 2.14E+04 |  |
| CCCCCC=O [hexanal] |  |  | 68294.85 μg/l air | Top | 1.76E−03 μg/l air | 3.88E+07 | Type [1, 6]: Top; Volatility (μg/l air) [1, 7]: 68294.85 μg/l air; Odor Threshold (μg/l air) [3, 7]: 1.76E−03 μg/l air |
| CCCCCCOC(=O)C(C)C [hexyl 2-methylpropanoate] | 1661.18 μg/l air | TOP (perfuming compounds having a volatility ranging from 70,000 to 100 μg/l in air are referred to as “top notes”) |  |  |  |  | Type [1, 6]: Top; Volatility (μg/l air) [1, 7]: 1661.18 μg/l air; Odor Threshold (μg/l air) [3, 7]: 7.15E−01 μg/l air |
| C/C=C(\C)C(=O)OCCCCCC [hexyl (2E)-2-methyl-2-butenoate] | 256.81 μg/l air | TOP (perfuming compounds having a volatility ranging from 70,000 to 100 μg/l in air are referred to as “top notes”) |  |  |  |  | Volatility [1, 10]: 256.81 μg/l air; Type ([1]; Table 8, perfuming compounds having a sweet note, note type by volatility): Top; Type [1, 6]: Top; Volatility (μg/l air) [1, 7]: 256.81 μg/l air; Odor Threshold [3, 10]: 1.16E−02 μg/l air; Odor Value [3, 10]: 2.22E+04; Odor Threshold (μg/l air) [3, 7]: 1.16E−02 μg/l air |
| CCCCCC/C=C/C(=O)OC [methyl (2E)-2-nonenoate] | 264.84 μg/l air | TOP (perfuming compounds having a volatility ranging from 70,000 to 100 μg/l in air are referred to as “top notes”) |  |  |  |  | Type [1, 6]: Top; Volatility (μg/l air) [1, 7]: 264.84 μg/l air; Odor Threshold (μg/l air) [3, 7]: 5.84E−02 μg/l air |
| CCCCCCCCC=O [nonanal] |  |  | 2777.63 μg/l air | Top | 8.14E−03 μg/l air | 3.41E+05 | Type [1, 6]: Top; Volatility (μg/l air) [1, 7]: 2777.63 μg/l air; Odor Threshold (μg/l air) [3, 7]: 8.14E−03 μg/l air |
| CCCCCCCCOC(C)=O [octyl acetate] | 666.51 μg/l air | TOP (perfuming compounds having a volatility ranging from 70,000 to 100 μg/l in air are referred to as “top notes”) | 666.51 μg/l air | Top | 1.76E−01 μg/l air | 3.78E+03 |  |
| CCCCCCCCCCC=O [undecanal] |  |  |  |  |  |  | Volatility (μg/l air) ([1]; Table 4, watery note): 178.29 μg/l air; Type [1, 11]: TOP (perfuming compounds having a volatility ranging from 70,000 to 100 μg/l in air are referred to as “top notes”); Odor Threshold (μg/l air) ([3]; Table 4, watery note): 1.65E−03 μg/l air; Odor Value [3, 12]: 1.08E+05 |
| (1S,4S,9S,10R,13R)-5,5,9,13-tetramethyl-14,16-dioxatetracyclo[11.2.1.0~1,10~.0~4,9~]hexadecane (A) + (1R,4S,9S,10R,13S)-5,5,9,13-tetramethyl-14,16-dioxatetracyclo[11.2.1.0~1,10~.0~4,9~]hexadecane (B) |  |  |  |  |  |  | Volatility (μg/l air) ([1]; Table 4, watery note): 6.77 μg/l air; Type [1, 11]: bottom (perfuming compounds having a volatility ranging from 49 to 0.1 μg/l in air are referred to as “bottom notes”); Odor Threshold (μg/l air) ([3]; Table 4, watery note): 4.36E−04 μg/l air; Odor Value [3, 12]: 1.55E+04 |
| (2R)-2-methyl-4-[(1R)-2,2,3-trimethyl-3-cyclopenten-1-yl]-4-pentenal (A) + (2S)-2-methyl-4-[(1R)-2,2,3-trimethyl-3-cyclopenten-1-yl]-4-pentenal (B) |  |  |  |  |  |  | Volatility (μg/l air) ([1]; Table 4, watery note): 63.49 μg/l air; Type [1, 11]: middle (perfuming compounds having a volatility ranging from 99 to 50 μg/l in air are referred to as “middle notes”); Odor Threshold (μg/l air) ([3]; Table 4, watery note): 2.22E−03 μg/l air; Odor Value [3, 12]: 2.86E+04 |
| (2RS,4SR)-4-methyl-2-phenyltetrahydro-2H-pyran (A) + (2RS,4RS)-4-methyl-2-phenyltetrahydro-2H-pyran (B) |  |  | 99.84 μg/l air | Middle | 1.04E−03 μg/l air | 9.61E+04 |  |
| (3Z)-1,3-undecadien-5-yne (A) + (3E)-1,3-undecadien-5-yne (B) |  |  | 990.87 μg/l air | Top | 3.32E−03 μg/l air | 2.98E+05 |  |
| (+−)-3-(4-hydroxy-4-methylpentyl)-3-cyclohexene-1-carbaldehyde (A) + (+−)-4-(4-hydroxy-4-methylpentyl)-3-cyclohexene-1-carbaldehyde (B) |  |  |  |  |  |  | Volatility (μg/l air) ([1]; Table 4, watery note): 0.70 μg/l air; Type [1, 11]: bottom (perfuming compounds having a volatility ranging from 49 to 0.1 μg/l in air are referred to as “bottom notes”); Odor Threshold (μg/l air) ([3]; Table 4, watery note): 8.81E−05 μg/l air; Odor Value [3, 12]: 7.92E+03 |
| (+−)-3-(4-methyl-3-penten-1-yl)-3-cyclohexene-1-carbaldehyde (A) + (+−)-4-(4-methyl-3-penten-1-yl)-3-cyclohexene-1-carbaldehyde (B) |  |  |  |  |  |  | Volatility (μg/l air) ([1]; Table 4, watery note): 21.54 μg/l air; Type [1, 11]: bottom (perfuming compounds having a volatility ranging from 49 to 0.1 μg/l in air are referred to as “bottom notes”); Odor Threshold (μg/l air) ([3]; Table 4, watery note): 3.68E−03 μg/l air; Odor Value [3, 12]: 5.85E+03 |
| (A) + (+−)-3,5,6,6-tetramethyl-4-methylidene-2-heptanone (B) + (+−)-(4E)-3,4,5,6,6-pentamethyl-4-hepten-2-one (C) + (+−)-(3Z)-3,4,5,6,6-pentamethyl-3-hepten-2-one (D) + (+−)-(3E)-3,4,5,6,6-pentamethyl-3-hepten-2-one (E) |  |  | 659.22 μg/l air | Top | 7.24E−02 μg/l air | 9.11E+03 |  |
| (Z)-3,7-DIMETHYL-1,6-NONADIEN-3-OL (A) + (E)-3,7-DIMETHYL-1,6-NONADIEN-3-OL (B) |  |  | 283.43 μg/l air | Top | 1.38E−03 μg/l air | 2.05E+05 |  |
| (Z)-3,7-DIMETHYL-2,6-OCTADIENAL (A) + (E)-3,7-DIMETHYL-2,6-OCTADIENAL (B) |  |  | 202.66 μg/l air | Top | 4.12E−03 μg/l air | 4.92E+04 |  |
| (−)-(1S)-2,6,6-TRIMETHYL-BICYCLO[3.1.1]HEPT-2-ENE |  |  |  |  |  |  | Type [1, 6]: Top; Volatility (μg/l air) [1, 7]: 33722.60 μg/l air; Odor Threshold (μg/l air) [3, 7]: 1.02E−01 μg/l air |
| ALLYL (3-METHYLBUTOXY)ACETATE (A) + (+−)-ALLYL (2-METHYLBUTOXY)ACETATE (B) |  |  | 261.90 μg/l air | Top | 9.89E−05 μg/l air | 2.65E+06 |  |
| CITRONELLOL (A) + GERANIOL (B) |  |  | 89.88 μg/l air | Middle | 7.69E−04 μg/l air |  |  |
| TRICYCLO[5.2.1.0(2,6)]DEC-3-EN-8-YL PROPANOATE (A) + TRICYCLO[5.2.1.0(2,6)]DEC-4-EN-8-YL PROPANOATE (B) |  |  | 35.82 μg/l air | Bottom | 2.44E−04 μg/l air | 1.47E+05 |  |
| cis-4-(2-methyl-2-propanyl)cyclohexyl acetate (A) + trans-4-(2-methyl-2-propanyl)cyclohexyl acetate (B) |  |  | 291.85 μg/l air | Top | 5.43E−02 μg/l air | 5.37E+03 |  |
| tricyclo[5.2.1.0~2,6~]dec-3-en-8-yl acetate (A) + tricyclo[5.2.1.0~2,6~]dec-4-en-8-yl acetate (B) |  |  | 96.53 μg/l air | Middle | 7.19E−04 μg/l air | 1.34E+05 |  |
